Earlier results, collected in patent publication EP4512393A1, “COMBINATION OF SODIUM DICHLOROACETATE AND VALPROIC ACID SALTS FOR THE TREATMENT OF VIRAL AND BACTERIAL INFECTIONS AND INFLAMMATORY DISEASES” (Lietuvos sveikatos mokslu universitetas, priority 2023, dated 2025).

Tested on: leukocyte migration into the peritoneal cavity
Details: peritonitis-induced male rat model

## CCCC(CCC)C(=O)O [VPA, 2-n-propyl-pentanoic acid]
  inhibition of leukocyte migration into the peritoneal cavity: 92%
